Experimental data from patent US20110319338A1, “PEPTIDES THAT BIND EUKARYOTIC TRANSLATION INITIATION FACTOR 4E” (The Board of Regents of the University of Texas System, priority 2008, published 2011).
“Also recorded” adds a separate entry of the source. Square brackets hold non-standard residues; d marks the D form. Peptide text beside a SMILES is read from it. pGlu = O=C1CC[C@@H](C(=O)O)N1

Legend:
luteinizing hormone (LH) = assay: Assay of serum LH levels by radioimmunoassay; settings: serum collected at end of regimen (Day 20)
[1] = Tolerability in xenograft mice: observation, histology and TUNEL-staining of tissues; format: in vivo
Description: FIGS. 11A-11B. TUNEL-staining of tissues of saline- and peptide-treated mice. […] Shown are normal tissues of the brain, heart, lung, liver, breast, pancreas and ovary, and tumor implants on the omentum. Bar, 60 micrometers. Pancreatic and ovarian sections show normal pancreatic (P) and ovarian (O) tissues plus adjacent tumor (T). Also shown are normal tissues of the pituitary and bone marrow. Bar, 20 micrometers
(§1) Animal Studies. Animal studies were approved by the Institutional Animal Care and Use Committee. The ES-2 cell line stably expressing enhanced green fluorescent protein (ES-2-GFP) has been described in previous work (Hara et al., 2007). Four-week-old female nude mice were inoculated i.p. at one site in the lower abdomen with 10^6 ES-2-GFP cells. At Day 9 after tumor cell inoculation, one group of mice (n=5) were killed by CO2 asphyxiation. At Day 9, other groups of mice were administered by i.p. injection with 200 microliters of phosphate-buffered saline (PBS) (n=11), [DLys6]GnRH (n=11) or [DLys6]GnRH-4EBP1-WT peptide (n=11) at a dose of 3.0 nanomoles per gram body weight. Peptides were suspended in PBS and administered at a volume of 200 microliters. PBS or peptide was administered every 2 days thereafter for 11 days (6 doses in total). Mice were sacrificed on Day 20, and ascites harvested. Tumors were visualized under a Leica MZML III fluorescence stereomicroscope equipped with mercury lamp power supply and green fluorescent protein (GFP) filter set. Tumor burden was quantified by measuring areas of fluorescence signals within the abdominal cavity in captured images by using Image Pro Plus 5.0 software (Media Cybernetics, Bethesda, Md.). Slides of paraffin-embedded tissues collected from mice were stained with hematoxylin-eosin. TUNEL-staining of tissue sections was performed using the in situ cell death detection kit (Roche).

ES-2-GFP cells = assay: Mouse i.p. xenograft model of epithelial ovarian cancer; format: in vivo; settings: for Deaths (died before completing treatment regimen) / Drop-outs (euthanized prior to completion due to morbidity related to ascites accumulation): of 11 mice per group
Protocol: FIGS. 4A-4C. Anti-tumor activity of [DLys6]GnRH-4EBP1-WT peptide in a xenograft model of EOC. Female nude mice were inoculated i.p. with one million ES-2-GFP cells. At Day 9 after tumor cell inoculation, one group of mice (n=5) was sacrificed (pre-treatment). At Day 9, other groups of mice were administered by i.p. injection with saline (n=11), [DLys6]GnRH (n=11) or [DLys6]GnRH-4EBP1-WT (n=11) at a dose of 3.0 nanomoles per gram body weight Saline or peptide was administered every 2 days thereafter for 11 days (6 doses in total), and mice were sacrificed on Day 20. (FIG. 4A) Visualization under a fluorescence stereoscope of i.p. tumors in pre-treatment mice (at Day 9) including implants on the omentum (ome), and in mice treated with saline, with agonist alone and with [DLys6]GnRH-4EBP1-WT (at Day 20). (FIG. 4B) Hematoxylin eosin-stained sections of tissues of pre-treatment mice (at Day 9) and of saline- and peptide-treated mice (at Day 20). Tumors attached to the omentum extensively involved the pancreas in saline- and agonist-treated mice. Also shown are tumors attached to the broad ligament and mesentery. Bar, 200 micrometers. (FIG. 4C) Quantification of i.p. tumor burden in pre-treatment and treated mice that completed the regimen, expressed as the average percent of area of fluorescence within the abdominal cavity in captured images, and volume of ascites. Median values of tumor burden and ascites volume for each group and statistical significance of differences between groups are indicated.
as §1
To determine the efficacy of [DLys6]GnRH-4EBP1-WT peptide in vivo, a mouse i.p. xenograft model was used that was established from an ES-2 cell line stably expressing GFP (Hara et al., 2007). This model mimics the typical behavior of epithelial ovarian cancer, including i.p. dissemination and ascites formation. This example comprised three treatment groups of mice i) saline, ii) [DLys6]GnRH agonist, and iii) [DLys6]GnRH-4EBP1-WT, where sample size of each group was n=11. The first dose of peptide or saline was administered i.p. to mice at Day 9 after tumor cell inoculation. At Day 9, no ascites had yet formed but tumors had established on the omentum, broad ligament and mesentery which are common sites of ovarian cancer cell attachment (FIGS. 4A,B). A schedule in which peptide was administered every 2 days was chosen, based on the studies of peptide stability in serum (FIG. 6).
Based on studies of other agonist conjugates in xenograft models (19-21), a peptide dose of 3.0 nanomoles per gram body weight was used. […]

[2] = Peptide stability in serum and in culture medium (Western blot, MALDI TOF); format: in vitro ADME; settings: human, serum (undiluted, of an ovarian cancer patient), 37° C.
Protocol: FIGS. 6A-6B. Stability of [DLys6]GnRH-4EBP1 peptide. Biotinylated peptide was added to McCoys' 5A medium containing 10% fetal bovine serum (FBS), and to human serum. Samples were immediately withdrawn (0 hours). The remaining mixtures were incubated at 37° C., and samples taken thereafter at 1, 3, 6, 12 and 24 hours. In (FIG. 6A), samples were analyzed by Western blot using horseradish peroxidase-conjugated strepatavidin. In (FIG. 6B), samples of peptide incubated in serum for 0, 12 and 24 hours were analyzed by Matrix Assisted Laser Desorption Ionization-Time of Flight (MALDI TOF) mass spectrometry. Peaks corresponding to intact peptide (mass: 3990) are indicated. Peaks of 1256, 1684 and 3384 in mass are likely to represent degradation products of the peptide.
Peptide stability studies. Biotinylated peptide (7 micrograms) was mixed with McCoys' 5A medium containing 10% FBS in a final volume of 140 microliters. A sample of 20 microliters was immediately removed and frozen. The remaining mixture was incubated at 37° C., and 20 microliters samples taken thereafter at 1, 3, 6, 12 and 24 hours. […] Samples were analyzed by Western blot using horseradish peroxidase-conjugated strepatavidin, and by MALDI TOF mass spectrometry using an Applied Biosystems 4700 Proteomic Analyzer.

[3] = Mouse serum antibody assays; format: in vivo, mice; settings: serum 1:100 dilution
Protocol: FIGS. 12A-12C. Serum luteinizing hormone (LH) levels and serum antibody reactivity.
Mouse serum antibody assays. Wells in 96-well plates were coated with 50 nanograms of [DLys6]GnRH-4EBP1-WT peptide or with 100 nanograms of ES-2 cell lysate. Serum of saline- and peptide-treated mice (1:100 dilution) was incubated in wells for 2 hours at room temperature. Bound IgG was detected using horseradish peroxidase-conjugated goat anti-mouse IgG, and measured at an optimal density of 450 nm.

SMILES: CC[C@H](C)[C@H](NC(=O)[C@H](CCCNC(=N)N)NC(=O)[C@@H](NC(=O)CNC(=O)CNC(=O)[C@@H]1CCCN1C(=O)[C@H](CCCNC(=N)N)NC(=O)[C@H](CC(C)C)NC(=O)[C@@H](CCCCN)NC(=O)[C@H](Cc1ccc(O)cc1)NC(=O)[C@H](CO)NC(=O)[C@H](Cc1c[nH]c2ccccc12)NC(=O)[C@H](Cc1c[nH]cn1)NC(=O)[C@@H]1CCC(=O)N1)[C@@H](C)O)C(=O)N[C@H](C(=O)N[C@@H](Cc1ccc(O)cc1)C(=O)N[C@@H](CC(=O)O)C(=O)N[C@@H](CCCNC(=N)N)C(=O)N[C@@H](CCCCN)C(=O)N[C@@H](Cc1ccccc1)C(=O)N[C@@H](CC(C)C)C(=O)N[C@@H](CCSC)C(=O)N[C@@H](CCC(=O)O)C(=O)N[C@@H](CS)C(=O)N[C@@H](CCCNC(=N)N)C(=O)N[C@@H](CC(N)=O)C(=O)N[C@@H](CO)C(=O)N1CCC[C@H]1C(=O)N[C@H](C(=O)N[C@H](C(=O)O)[C@@H](C)O)C(C)C)[C@@H](C)CC [[DLys6]GnRH-4EBP1-WT] ([pGlu]HWSY[dK]LRPGGTRIIYDRKFLMECRNSPVT-OH)
- serum LH levels compared with saline-treated mice (luteinizing hormone (LH)): not significantly different
- TUNEL-positive cells in other normal tissues (brain, heart, lung and bone marrow) ([1]; Day 20): not detected
- TUNEL-staining in ovaries ([1]; Day 20): some staining was observed
- TUNEL-staining of cells of the liver and pancreas ([1]; Day 20): TUNEL-negative
- TUNEL-staining in breast and pituitary tissues ([1]; Day 20, tissues that express GnRH-RI): No TUNEL-staining was detected
- Mice euthanized, day (ES-2-GFP cells; drop-out mice, individual animals): n = 1, day 15; also recorded: n = 1, day 17
- day of death before completing treatment regimen (ES-2-GFP cells; mouse, in vivo): 19 days
- Deaths (died before completing treatment regimen) (ES-2-GFP cells): 1
- Drop-outs (euthanized prior to completion due to morbidity related to ascites accumulation) (ES-2-GFP cells): 2
- Deaths (died before completing treatment regimen) (ES-2-GFP cells; listed as [DLys6]GnRH-4EBP-WT): one
- Drop-outs (euthanized prior to completion due to morbidity related to ascites accumulation) (ES-2-GFP cells; listed as [DLys6]GnRH-4EBP-WT): two
- half-life [2]: 5 to 6 h
- mice with antibody reactivity to [DLys6]GnRH-4EBP1-WT at least two standard deviations above mean background in saline-treated mice [3]: 2 of 8
